What was measured:
[1] = Steady state plasma concentration from subcutaneous osmotic pumps
LLC murine tumor cells = assay: In vivo antitumor activity, LLC tumor allograft, alone or with chemotherapy; conditions: for antitumor effect: LLC tumor in C57Bl6 mice, single agent or in combination with chemotherapy

SMILES	steady state plasma concentration of drug ([1]; s.c. osmotic pumps, 200 uL of 30 mg/mL solution, 1 uL per hour for 8 days) [µM]	antitumor effect (LLC murine tumor cells)	long term survival fraction, mice tumor free after 60 days (LLC murine tumor cells; LLC tumor, after 60 days)	median survival time (log rank test) (LLC murine tumor cells; LLC tumor, single agent or in combination with cyclophosphamide)	average tumor volume over time (LLC murine tumor cells; LLC tumor, single agent or in combination with cyclophosphamide 100 mg/kg i.p.)	steady state plasma concentration of drug ([1]; mouse, in vivo) [µM]	median survival time vs vehicle (log rank test) (LLC murine tumor cells; LLC tumor, single agent)	average tumor volume over time vs vehicle (fitted exponential growth curves) (LLC murine tumor cells; LLC tumor, single agent, osmotic pumps, p<0.0001)
OC(CC1c2ccccc2-c2cncn21)C1CCCCC1 (stereo not drawn) [Compound 1304, 1-cyclohexyl-2-(5H-imidazo[5,1-a]isoindol-5-yl)ethanol]	0.5 to 3	significant antitumor effect	70-80%	statistically significant difference in median survival time	very sensitive to the effects of treatment			
OC(CC1c2c(F)cccc2-c2cncn21)C1CCCCC1 (stereo not drawn) [Compound 1357, 1-cyclohexyl-2-(6-fluoro-5H-imidazo[5,1-a]isoindol-5-yl)ethanol]		significant antitumor effect				0.5 to 3	statistically significant difference in median survival time	statistically significant differences
